The text below walks through data of PubChem BioAssay (NCI).

Among the test systems are NCI/ADR-RES ovarian; MDA-MB-231 breast; MDA-MB-435; MDA-N.
Common to all, as to experiment: NCI-60 cell line screen, 48 h

Several values for one entry are separate records, joined by “and”; a condition that tells them apart may be missing. Equal entries are not always repeated.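 Step 1: Grow cells in 96-well plates. Step 2: Expose to compound for 48 hours at 5 concentrations. Step 3: Interpolate endpoints linearly; if unreached, use highest concentration. GI50 is the concentration that inhibits growth by half. TGI is the concentration that stops growth completely.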 Bounds are passed on as bounds.

For the compound `C=C1CC[C@@H]2[C@](C)(COC(C)=O)[C@H](OC(C)=O)CC[C@@]2(C)[C@@H]1CC(Nc1ccc(S(=O)(=O)Nc2nccc(C)n2)cc1)C1=CCOC1=O` (stereo partly drawn), the figures for the GI50 with NCI/ADR-RES ovarian, in the assay on MDA-MB-231 breast and in the assay with MDA-MB-435 were 2.94 µM, 3.62 µM and 2.92 µM, respectively. The TGI in the assay with NCI/ADR-RES ovarian worked out at 13.5 µM; with MDA-MB-231 breast it was 10.2 µM; with MDA-MB-435, 10.4 µM.

`Cc1nc2sc(C(=O)Nc3ccccc3)c(N)c2cc1C(=O)/C=C/c1ccccc1`: the GI50 with MDA-MB-231 breast is 3.41 µM; in the assay with MDA-MB-435 it was 1.54 µM. Besides, the TGI is 11.3 µM in the assay on MDA-MB-231 breast and 3.73 µM in the assay on MDA-MB-435.

`CC(=O)[O-].CC(=O)[O-].[NH2-].[Pt+2].c1ccc2cnccc2c1`: the results for the GI50 in the assay on NCI/ADR-RES ovarian, with MDA-MB-231 breast and in the assay on MDA-MB-435 were 64.4 µM, 27.3 µM and > 100 µM, respectively. The TGI with NCI/ADR-RES ovarian, with MDA-MB-231 breast and in the assay with MDA-MB-435 was > 100 µM throughout.

As to `Nc1cc(N)c(N)cc1N`, the GI50 in the assay with NCI/ADR-RES ovarian was 2.24 µM; in the assay with MDA-MB-231 breast, 5.02 µM; with MDA-MB-435, 0.296 µM. Further, the TGI was 7.1 µM with NCI/ADR-RES ovarian, 29.4 µM in the assay on MDA-MB-231 breast and 0.851 µM with MDA-MB-435.

Take `O=NNc1nc(-c2cccnc2)nc2ccccc12`: the TGI in the assay on MDA-N, in the assay on NCI/ADR-RES ovarian and in the assay on MDA-MB-231 breast was > 100 µM throughout.

For `COc1ccc2c3c(c(=O)n(C)c2c1OC)C=CC(C)(C)O3`, the TGI with MDA-N is 62.2 µM; in the assay with NCI/ADR-RES ovarian, 64.3 µM; with MDA-MB-231 breast, 54 µM; in the assay on MDA-MB-435, > 100 µM.

For `Nc1nc2c(c(=O)[nH]1)CN(c1ccc(S(N)(=O)=O)cc1)CN2`, the TGI in the assay with MDA-N, in the assay with NCI/ADR-RES ovarian, with MDA-MB-231 breast and in the assay with MDA-MB-435 was > 100 µM throughout.

As for `CO/N=C(\C)c1ccc(Nc2cc(-c3ccccc3)nc3c(O)cccc23)cc1`, the GI50 is 14.5 µM in the assay with NCI/ADR-RES ovarian, 15 µM in the assay on MDA-MB-231 breast and 15.5 µM with MDA-MB-435. For the same compound, the values for the TGI with NCI/ADR-RES ovarian, with MDA-MB-231 breast and with MDA-MB-435 were 30.8 µM, 30.6 µM and 30.9 µM, respectively.

For the compound `C[C@@H]1COCCN1c1cc(C2(S(C)(=N)=O)CC2)nc(-c2ccnc3[nH]ccc23)n1` (stereo partly drawn), the GI50 in the assay with NCI/ADR-RES ovarian was 23.3 µM; with MDA-MB-231 breast it was 3.92 µM; in the assay with MDA-MB-435, 3.74 µM. Also, the TGI with NCI/ADR-RES ovarian amounted to 88.8 µM; in the assay on MDA-MB-231 breast, 74.7 µM; in the assay on MDA-MB-435, 21.8 µM.

For `C[C@H]1[C@H](C)CC[C@]2(C(=O)O)CC[C@]3(C)C(=CC[C@@H]4[C@@]5(C)C/C(=C/c6cccnc6)[C@H](O)C(C)(C)[C@@H]5CC[C@]43C)[C@H]12`, the GI50 in the assay on NCI/ADR-RES ovarian was 18.5 µM; in the assay on MDA-MB-231 breast, 22.5 µM; in the assay with MDA-MB-435, 27.6 µM. Besides, the TGI is 68.5 µM in the assay with NCI/ADR-RES ovarian, 72.1 µM in the assay with MDA-MB-231 breast and > 100 µM in the assay with MDA-MB-435.

Regarding `CC(=O)OCC1OC(n2ccc(=O)[nH]c2=O)C(OC(C)=O)C1OC(C)=O` (stereo not drawn), the GI50 in the assay on NCI/ADR-RES ovarian, in the assay with MDA-MB-231 breast and in the assay with MDA-MB-435 was > 100 µM each time. For the same compound, the TGI with NCI/ADR-RES ovarian, in the assay with MDA-MB-231 breast and in the assay on MDA-MB-435 was > 100 µM each time.

In the case of `C=C1C(=O)O[C@H]2[C@H]1CC/C(COC(=O)N1CCC[C@H]1C(=O)Nc1ccc(OC)c(C(N)=O)c1O)=C\CC[C@@]1(C)O[C@@H]21`, the GI50 in the assay with NCI/ADR-RES ovarian is 61 µM; in the assay with MDA-MB-231 breast, 2.68 µM; in the assay on MDA-MB-435, 3.8 µM. The TGI is > 100 µM with NCI/ADR-RES ovarian, 10.1 µM in the assay on MDA-MB-231 breast and 15.9 µM with MDA-MB-435.

On to `Fc1cccc(COc2ccc(Nc3ncnc4cc(-c5ccc[nH]5)sc34)cc2Cl)c1`, for which the GI50 in the assay on NCI/ADR-RES ovarian was 3.29 µM; with MDA-MB-231 breast, 0.734 µM; in the assay on MDA-MB-435, 6.11 µM. Moreover, the TGI in the assay with NCI/ADR-RES ovarian is > 25 µM; in the assay with MDA-MB-231 breast, > 15.7 µM; in the assay on MDA-MB-435 it was > 25 µM.

In the case of `CCc1cc(O)c(Cl)c(C)c1Cl`, the TGI in the assay with MDA-N turned out to be 29.9 µM; in the assay on NCI/ADR-RES ovarian it was 50.1 µM; in the assay with MDA-MB-231 breast, 81.1 µM; in the assay with MDA-MB-435, 30.1 µM.

In the case of `COc1ccc(-c2cn(-c3ccccc3)c(-c3ccccc3)n2)cc1OC`, the GI50 in the assay on NCI/ADR-RES ovarian is 4.01 µM; in the assay on MDA-MB-231 breast, 10.8 µM; in the assay on MDA-MB-435 it was 2.94 µM. The TGI was determined as 30.2 µM in the assay on NCI/ADR-RES ovarian, 23.5 µM with MDA-MB-231 breast and 12.5 µM in the assay on MDA-MB-435.

Take `NC(C(=O)[O-])C(=O)[O-].NC1CCCCC1N.[Pt+4]`: the GI50 was 7.47 µM in the assay with MDA-N, 4.41 µM in the assay on NCI/ADR-RES ovarian, 31.8 µM with MDA-MB-231 breast and 4.04 µM with MDA-MB-435. The TGI in the assay on MDA-N, in the assay on NCI/ADR-RES ovarian, in the assay with MDA-MB-231 breast and in the assay on MDA-MB-435 was > 100 µM throughout.

For `CC[C@H](CC#N)OC(=O)N[C@@H](C)c1cccc(NC(=O)Nc2ccc(-c3cnco3)c(OC)c2)c1`, the GI50 in the assay with NCI/ADR-RES ovarian is 4.87 µM; with MDA-MB-231 breast, 0.204 µM; with MDA-MB-435, 0.0498 µM. The TGI in the assay with NCI/ADR-RES ovarian is 62.2 µM; in the assay with MDA-MB-231 breast, > 89.5 µM; in the assay with MDA-MB-435 it was 29 µM.

For the compound `COc1cc(-c2cn(-c3ccc(Cl)cc3)c(C)c2C(=O)C(F)(F)F)cc(OC)c1OC`, the GI50 in the assay with NCI/ADR-RES ovarian, in the assay with MDA-MB-231 breast and in the assay with MDA-MB-435 was > 100 µM in each case. Further, the TGI with NCI/ADR-RES ovarian, in the assay on MDA-MB-231 breast and in the assay with MDA-MB-435 was > 100 µM in each case.

Consider `COc1ccc(-c2cncn2-c2ccc(OC)cc2)cc1`, for which the GI50 is 19.3 µM in the assay on NCI/ADR-RES ovarian, 21.3 µM in the assay on MDA-MB-231 breast and 3.62 µM in the assay on MDA-MB-435. In addition, the results for the TGI in the assay with NCI/ADR-RES ovarian, in the assay with MDA-MB-231 breast and with MDA-MB-435 were 42.9 µM, 71 µM and 14.1 µM, respectively.

With `CCCCCCCCCCCC[n+]1ccc(CCCCCCCCC)cc1`, in the assay on NCI/ADR-RES ovarian, the GI50 is 1.86 µM and the TGI was determined as 3.62 µM.

Consider `Cc1cc(C(C#N)c2ccc(Cl)cc2)c(Cl)cc1NC(=O)c1cc(I)cc(I)c1O` (stereo not drawn), for which the GI50 was 4.03 µM and 15.7 µM in the assay with NCI/ADR-RES ovarian; 5.48 µM and 14.2 µM in the assay on MDA-MB-231 breast; 12 µM and 18.8 µM in the assay on MDA-MB-435. The TGI in the assay on NCI/ADR-RES ovarian is 28.9 µM and 54.2 µM; in the assay on MDA-MB-231 breast it was 23.9 µM and 37.9 µM; with MDA-MB-435, 31.6 µM and 42 µM.
